Laboratory results published in the supplement of paper PMC10307832.

Assays:
Assay in all cases: relative viability (nuclei count vs DMSO), 5 days (fraction); higher = more cells survive
Ponatinib + Decitabine = compound: Cc1ccc(C(=O)Nc2ccc(CN3CCN(C)CC3)c(C(F)(F)F)c2)cc1C#Cc1cnc2cccnn12 [Ponatinib] + Nc1ncn([C@H]2C[C@H](O)[C@@H](CO)O2)c(=O)n1 [Decitabine] (partner 2 µM)
Procedure, shortened: (§1)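 Relative viability divides the nuclei count in treated wells by that in vehicle wells. Lung cancer cell lines were seeded in 1536-well plates, dosed by pin tool the next day, and fixed and stained after 5 days in one step with final 0.05% Triton X-100, 1% formaldehyde and 1 ug/ml Hoechst. Dosing was a single drug or a fixed anchor-drug dose plus five library-drug doses (not always all listed) in √10 steps, and values are medians of duplicate plates imaged at 4×.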

Ponatinib + Pictilisib = compound: Cc1ccc(C(=O)Nc2ccc(CN3CCN(C)CC3)c(C(F)(F)F)c2)cc1C#Cc1cnc2cccnn12 [Ponatinib] + CS(=O)(=O)N1CCN(Cc2cc3nc(-c4cccc5[nH]ncc45)nc(N4CCOCC4)c3s2)CC1 [Pictilisib] (partner 1 µM)
Procedure, shortened: as §1

Pazopanib + AZD7762 = compound: Cc1ccc(Nc2nccc(N(C)c3ccc4c(C)n(C)nc4c3)n2)cc1S(N)(=O)=O [Pazopanib] + NC(=O)Nc1cc(-c2cccc(F)c2)sc1C(=O)N[C@H]1CCCNC1 [AZD7762] (partner 0.2 µM)
Procedure, shortened: as §1

Pazopanib + Trametinib = compound: Cc1ccc(Nc2nccc(N(C)c3ccc4c(C)n(C)nc4c3)n2)cc1S(N)(=O)=O [Pazopanib] + CC(=O)Nc1cccc(-n2c(=O)n(C3CC3)c(=O)c3c(Nc4ccc(I)cc4F)n(C)c(=O)c(C)c32)c1 [Trametinib] (partner 0.02 µM)
Procedure, shortened: as §1

Cell Line | relative viability (Ponatinib + Decitabine; first compound 0.002 µM) | relative viability (Ponatinib + Decitabine; first compound 0.006325 µM) | relative viability (Ponatinib + Decitabine; first compound 0.06325 µM) | relative viability (Ponatinib + Decitabine; first compound 0.2 µM) | relative viability (Ponatinib + Pictilisib; first compound 0.002 µM) | relative viability (Ponatinib + Pictilisib; first compound 0.006325 µM) | relative viability (Ponatinib + Pictilisib; first compound 0.06325 µM) | relative viability (Ponatinib + Pictilisib; first compound 0.2 µM) | relative viability (Pazopanib + AZD7762; first compound 0.01 µM) | relative viability (Pazopanib + AZD7762; first compound 0.03162 µM) | relative viability (Pazopanib + AZD7762; first compound 0.1 µM) | relative viability (Pazopanib + AZD7762; first compound 0.3162 µM) | relative viability (Pazopanib + AZD7762; first compound 1 µM) | relative viability (Pazopanib + Trametinib; first compound 0.01 µM) | relative viability (Pazopanib + Trametinib; first compound 0.03162 µM) | relative viability (Pazopanib + Trametinib; first compound 0.1 µM) | relative viability (Pazopanib + Trametinib; first compound 0.3162 µM) | relative viability (Pazopanib + Trametinib; first compound 1 µM)
NCI-H3122 | 0.457 | 0.545 | 0.472 | 0.411 | 0.635 | 0.7 | 0.635 | 0.73 | 0.962 | 0.952 | 1.1 | 0.95 | 0.987 | 0.248 | 0.256 | 0.219 | 0.25 | 0.251
PC-3 [JPC-3] |  | 0.871 | 0.849 | 0.838 | 0.653 | 0.708 | 0.885 | 0.875 |  | 0.742 | 0.725 | 0.926 | 0.937 |  | 0.686 | 0.73 | 0.835 | 0.65
PC-14 | 0.214 | 0.222 | 0.232 | 0.214 | 0.637 | 0.691 | 0.794 | 0.702 | 0.422 | 0.328 | 0.268 | 0.372 | 0.426 | 0.834 | 0.775 | 0.896 | 1.09 | 0.766
RERF-LC-KJ | 0.646 | 0.724 | 0.835 | 0.665 | 0.618 | 0.582 | 0.781 | 0.68 | 0.796 | 0.915 | 0.916 | 1.02 | 0.992 | 0.82 | 0.892 | 0.842 | 0.805 | 0.853
